Measured values taken from patent US20050130961A1, “Muscarinic M1 receptor agonists for pain management” (priority 2003, published 2005).
Read-outs that look alike come from different tables or passages of the source.

Experiments:
M(1) muscarinic receptor = biological target: T1, M(1) muscarinic receptor (Homo sapiens, UniProt P11229); test: R-SAT functional receptor assay, M(1); format: cell-based; conditions: for Emax: read-out: M1 % efficacy
T1 construct: expressed in transfected cells
T1 sequence (P11229 1-460): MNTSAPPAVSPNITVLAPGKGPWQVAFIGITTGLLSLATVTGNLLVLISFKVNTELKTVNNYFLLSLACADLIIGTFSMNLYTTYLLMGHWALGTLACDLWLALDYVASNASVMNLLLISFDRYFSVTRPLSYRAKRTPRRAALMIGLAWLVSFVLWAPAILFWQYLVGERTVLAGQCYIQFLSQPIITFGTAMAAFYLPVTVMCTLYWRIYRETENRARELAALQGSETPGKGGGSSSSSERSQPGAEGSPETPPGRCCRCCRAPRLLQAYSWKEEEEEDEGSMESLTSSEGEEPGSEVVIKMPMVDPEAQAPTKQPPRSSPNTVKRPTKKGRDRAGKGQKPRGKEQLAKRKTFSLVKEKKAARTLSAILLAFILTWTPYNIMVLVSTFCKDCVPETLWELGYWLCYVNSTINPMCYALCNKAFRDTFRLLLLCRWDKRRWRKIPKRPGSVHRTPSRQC
Source text: (§1) The functional receptor assay, Receptor Selection and Amplification Technology (R-SAT), essentially as disclosed in U.S. Pat. Nos. 5,707,798, 5,912,132, and 5,955,281, which are all hereby incorporated by reference in their entirety, was used to investigate the pharmacological properties of known and novel muscarinic agonists.

M(2) muscarinic receptor = biological target: T2, M(2) muscarinic receptor (Homo sapiens, UniProt P08172); test: R-SAT functional receptor assay, M(2); format: cell-based; conditions: for Emax: read-out: M2 % efficacy
T2 construct: expressed in transfected cells
T2 sequence (P08172 1-466): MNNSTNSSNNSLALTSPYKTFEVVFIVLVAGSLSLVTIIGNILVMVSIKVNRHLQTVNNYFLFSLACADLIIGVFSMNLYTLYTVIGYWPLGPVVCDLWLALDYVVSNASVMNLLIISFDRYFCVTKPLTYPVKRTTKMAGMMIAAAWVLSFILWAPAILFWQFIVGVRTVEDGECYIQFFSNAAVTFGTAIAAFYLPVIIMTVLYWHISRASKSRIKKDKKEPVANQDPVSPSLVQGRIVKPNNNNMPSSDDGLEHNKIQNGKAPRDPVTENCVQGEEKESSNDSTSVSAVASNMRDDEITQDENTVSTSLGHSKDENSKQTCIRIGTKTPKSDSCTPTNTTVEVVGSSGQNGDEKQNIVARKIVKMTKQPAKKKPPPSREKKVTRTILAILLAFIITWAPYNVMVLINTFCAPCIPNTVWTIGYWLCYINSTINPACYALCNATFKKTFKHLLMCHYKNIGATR
Source text: as §1

thermal hyperalgesia = test: CCI/Thermal Hyperalgesia (paw withdrawal latency to radiant heat); format: in vivo; conditions: CCI rats; for dose that significantly reversed thermal hyperalgesia: post-hoc comparison relative to vehicle
Method: (§2) Rats were anesthetized under aseptic and heated conditions using a combination of 1.6 ml ketamine (100 mg/ml) and 1.6 ml xylazine (100 mg/ml) in 6.8 ml 0.9% saline at a volume of 0.1 ml/100 g. The left quadriceps was shaved and scrubbed thoroughly with an iodine solution. The sciatic nerve was exposed at the level of the sciatic notch distally to the sciatic trifurcation. The nerve was very carefully freed from the underlying muscle and connective tissue without causing trauma to the nerve itself. Using 4-0 chromic catgut suture material, four semi-loose ligatures were tied around the sciatic nerve starting at the most proximal level, next to the sciatic notch, spaced roughly 1 mm apart and ending proximal to the sciatic trifurcation. […] The muscular incision was closed with 4-0 silk suture material and the skin was stapled with wound clips. The animals were closely observed until they recovered completely from the anesthetic. The surgery was the same for the hyperalgesia and allodynia experiments.
For hyperalgesia testing, rats were placed in a tinted plastic box on top of a clear glass, temperature-regulated floor maintained at 31±1° C. The floor contained a focal radiant heat source (halogen projection lamp CXL/CXP, 50 W, 8 v, USHIO, Tokyo).
To initiate the test, rats were placed in the tinted boxes and allowed 10-20 minutes to acclimate to the new environment. The radiant heat source was then positioned under the plantar surface of the hind paw. Upon activation of the heat source, a timer was simultaneously triggered. Upon reflex movement of the hind paw, a motion sensor was activated stopping the timer and inactivating the heat source. The thermal source was adjusted so that the average response latency for an uninjured animal was no greater than 20 seconds. Each rat had two days of pre-operative baseline latency measurements in which the left rear hind paw plantar surface was measured three to four times. Two to three left postoperative baseline latency measurements were taken before and after the treatment was given. Postoperative day 2 and 4 measurements yielded the greatest degree of hyperalgesia and thus were utilized in this assay. Each animal was tested twice with at least 48 hours separating each test.
Thermal hyperalgesia developed in the surgical-treated left paw as evidenced by a decrease in paw withdrawal latencies to a thermal stimulus. The maximal hyperalgesia occurred on post-operative days 2 through 4. Paw withdrawal latencies on the surgically-treated left side gradually returned to baseline levels over the course of 5 to 12 days post-surgery.

tactile allodynia [1] = test: CCI/Tactile Allodynia (von Frey hairs); format: in vivo; conditions: CCI rats; for dose that reversed tactile allodynia: i.p., post-hoc comparison
Method: as §2
The onset and duration of significant mechanical allodynia post CCI surgery is approximately 10-14 days and lasts for roughly two months. Within this allodynic time frame, and for each specific allodynia experiment, pre and post drug administration measurements were taken with seven von Frey hairs which are designated by log (10* force required to bend hair, mg) and ranged from 2-26 grams (#'s 4.31-5.46). Each hair was pressed perpendicularly against the left injured plantar mid-hind paw surface with sufficient force to cause a slight bending, and was held for 6-8 seconds starting with the thinnest gauged hair and working up to the thickest. A positive response was recorded when the injured paw was sharply withdrawn, and this response was confirmed as positive by testing the next thickest gauged hair for the same response. Only when a response was seen twice was the score accepted. If the maximum gram force of 26 was reached without a response, this was considered the peak threshold cutoff for allodynic behavior and the score was recorded. Animals were considered allodynic when the post surgery baseline measurements were 6 grams and below. Two baseline days of measurements were taken with one round of testing occurring per day. On the day of drug testing, one round of baseline measurements were taken, the appropriate pretreatment was administered i.p. and a second round of measurements were recorded. Each animal was utilized in multiple experiments, with one treatment per experiment, and an appropriate washout period in between experiments.

acute thermal pain = test: Acute Thermal Analgesia (tail withdrawal from 55° C. water); format: in vivo; conditions: rats; for alleviating acute thermal pain, in words / dose active in acute antinociception (tail withdrawal): 55° C. water; for Acute pain, minimal effective dose: NA = not active at the highest tested dose of 30 mg/kg
Method: Water was heated and maintained at 55° C.±1° C. with a probe regulated hot plate. Female rats weighing approximately 200 g -250 g were acclimated days in advance by placing them into and removing them from a plastic rat restrainer. On the day of the experiment each rat was placed in the restrainer 1 minute before the test was performed. Roughly one inch of the tail was submerged into the water as a timer was initiated. Once the tail was completely removed from the water, the timer was stopped and the time was recorded. […] One round of baseline measurements were collected. The test compound was administered and after the appropriate pretreatment interval, the procedure was repeated. Each animal was utilized in multiple experiments, with one treatment per experiment, and an appropriate washout period of at least 48 hours between experiments. The pre-treatment baseline tail withdrawal latency average was 2.281 s±0.25. […] At a dose of 10 mg/kg, morphine [F(3,23)=5.903, p<0.01] was antinociceptive.

tactile allodynia [2] = test: Partial Sciatic Ligation (PSL) Surgery/Tactile Allodynia; format: in vivo, mice
rats = test: Muscarinic Side Effects; conditions: of N tested
[3] = R-SAT, read-out: M1 pEC50 (converted)
[4] = R-SAT, read-out: M2 pEC50 (converted)

| Compound | agonist character at M(1) receptor, in words (M(1) muscarinic receptor; R-SAT) | EC50 (M(1) muscarinic receptor; [3]) | Emax (M(1) muscarinic receptor; R-SAT, relative to carbachol) | agonist character at M(2) receptor, in words (M(2) muscarinic receptor; R-SAT) | EC50 (M(2) muscarinic receptor; [4]) | Emax (M(2) muscarinic receptor; R-SAT, relative to carbachol) | Antihyperalgesic, minimal effective dose (thermal hyperalgesia) | dose that significantly reversed thermal hyperalgesia (thermal hyperalgesia) | Antiallodynic, minimal effective dose (tactile allodynia [1]) | dose that reversed tactile allodynia (tactile allodynia [1]) | alleviating acute thermal pain, in words (acute thermal pain) | dose active in acute antinociception (tail withdrawal) (acute thermal pain) | Acute pain, minimal effective dose (acute thermal pain) | also measured |
| --- | --- | --- | --- | --- | --- | --- | --- | --- | --- | --- | --- | --- | --- | --- |
| CCCCC1CCN(CCCN2C(=O)COc3cc(F)ccc32)CC1 [Formula (IX)] | potent and efficacious M(1) agonist | 31.6 nM | 79% | weak partial agonists | 501 nM | 48% | 10.0 mg/kg | 10 mg/kg | 17.8 mg/kg | 17.8 mg/kg | not active | – | – | effect on tactile allodynia after PSL, in words (tactile allodynia [2]; M(1) receptor knockout (KO) mice, 30 mg/kg): completely abolished; effect on tactile allodynia after PSL, in words (tactile allodynia [2]; mice, intracerebroventricular (i.c.v.) administration): significantly reversed tactile allodynia; effect on tactile allodynia after PSL, in words (tactile allodynia [2]; wild type (WT) mice, 30 mg/kg): significantly alleviated the tactile allodynia |
| CCCCC1CCN(CCCc2nsc3ccccc23)CC1 [Formula (VII)] | potent and efficacious M(1) agonist | 79.4 nM | 85% | weak partial agonists | 1260 nM | 36% | 10.0 mg/kg | 10 mg/kg | 10.0 mg/kg | 10 mg/kg | not active | – | – | – |
| CCCCC1CCN(CCCN2CCOc3ccc(C)cc32)CC1 [Formula (VIII)] | potent and efficacious M(1) agonist | 20 nM | – | weak partial agonists | 501 nM | – | 10.0 mg/kg | 10 mg/kg | 30.0 mg/kg | 30 mg/kg | not active | – | – | Emax (M(1) muscarinic receptor): 81%; Emax (M(2) muscarinic receptor): 39% |
| CO/N=C/C1=CCCN(C)C1 [Milameline] | potent and efficacious full agonists | 398 nM | 90% | potent and efficacious full agonists | 631 nM | 110% | 0.3 mg/kg | – | 0.3 mg/kg | – | – | 1.0 mg/kg | 1.0 mg/kg | – |
| CN1CC[C@]23c4c5ccc(O)c4O[C@H]2[C@@H](O)C=C[C@H]3[C@H]1C5 [Morphine, morphine] | – | – | – | – | – | – | – | – | – | – | – | 10 mg/kg | – | anti-allodynia, in words (tactile allodynia [1]): elicited anti-allodynia |
| O=C1CCCN1CC#CCN1CCCC1 [Oxotremorine] | potent and efficacious full agonists | – | – | potent and efficacious full agonists | – | – | 0.3 mg/kg | – | 0.3 mg/kg | – | – | – | 0.3 mg/kg | EC50 (M(1) muscarinic receptor): 63.1 nM; Emax (M(1) muscarinic receptor): 91%; EC50 (M(2) muscarinic receptor): 15.8 nM; Emax (M(2) muscarinic receptor): 104%; paw withdrawal latency (thermal hyperalgesia; dose 1 mg/kg): 18.468 ± 1.532 s; Chromodaccyhrea, number of animals exhibiting (rats; 0.1 mg/kg): 0; Diarrhea, number of animals exhibiting (rats; 0.1 mg/kg): 1; Lethargy, number of animals exhibiting (rats; 0.1 mg/kg): 0; Salivation, number of animals exhibiting (rats; 0.1 mg/kg): 0; Tremor, number of animals exhibiting (rats; 0.1 mg/kg): 0; Chromodaccyhrea, number of animals exhibiting (rats; 0.3 mg/kg): 2; Diarrhea, number of animals exhibiting (rats; 0.3 mg/kg): 7; Lethargy, number of animals exhibiting (rats; 0.3 mg/kg): 0; Salivation, number of animals exhibiting (rats; 0.3 mg/kg): 9; Tremor, number of animals exhibiting (rats; 0.3 mg/kg): 0; Chromodaccyhrea, number of animals exhibiting (rats; 1 mg/kg): 8; Diarrhea, number of animals exhibiting (rats; 1 mg/kg): 18; Lethargy, number of animals exhibiting (rats; 1 mg/kg): 18; Salivation, number of animals exhibiting (rats; 1 mg/kg): 16; Tremor, number of animals exhibiting (rats; 1 mg/kg): 6 |
| CCCCCCOc1nsnc1C1=CCCN(C)C1 [Xanomeline] | – | – | – | potent and efficacious full agonists | – | 109% | 10.0 mg/kg | 10 mg/kg | 10.0 mg/kg | – | – | 10.0 mg/kg | 10.0 mg/kg | dose that did not reverse thermal hyperalgesia (thermal hyperalgesia; p>0.05 relative to vehicle): 3 mg/kg |
